Patent publication US11571435B2, “S1PR4-targeting composition for preventing or treating non-alcoholic steatohepatitis” (UNIVERSITY OF ULSAN FOUNDATION FOR INDUSTRY COOPERATION, priority 2017, dated 2023)

How the values were obtained:
[1] = reported for FTY720; cited from earlier work
S1PR4-EGFP = assay: S1PR4 internalization and recycling in cell lines overexpressing S1PR4-EGFP (fluorescence microscopy); format: cell-based; conditions: S1P 100 nM, FTY720 100 nM, SLB736 1 μM, cycloheximide; for S1PR4 internalization: 30 minutes after treatment; for S1PR4 recycling to the cell membrane: 2 hours (washed after 30 minutes)
Experimental: Cell lines overexpressing S1PR4-EGFP were used to identify whether or not SLB736 and FTY720 actually internalize S1PR4 into cells and thereby act as functional antagonists.
Specifically, the cell lines overexpressing S1PR4-EGFP were incubated in a cover glass allowing for microscopic observation and were then treated with a vehicle (dimethyl sulfoxide […]), S1P (100 nM; agonist, positive control group), FTY720 (100 nM) and SLB736 (1 μM). 30 minutes and 2 hours after treatment with each material, the cell lines were fixed with a fixing solution and observed with a fluorescence microscope. At this time, the cells were cultured after treatment with a protein synthesis inhibitor (cycloheximide) in order to inhibit the synthesis of new receptors, were first observed with a fluorescence microscope 30 minutes after each material treatment, and were then washed. Then, the cells were further cultured for 1 hour 30 minutes and were secondarily observed, and cell images were obtained.

S1PR4 [2] = target: T1, S1PR4 (Mus musculus, UniProt Q9Z0L1); assay: S1PR4 protein expression in liver tissue of MCDD-fed mice (Western blotting); format: in vivo; conditions: C57BL/6N mice, 1 mg/kg with MCDD for 6 weeks, vs MCDD alone
T1 construct: endogenous in cells; host or cells: Raw cells (mouse macrophage line)
T1 sequence (Q9Z0L1 1-386): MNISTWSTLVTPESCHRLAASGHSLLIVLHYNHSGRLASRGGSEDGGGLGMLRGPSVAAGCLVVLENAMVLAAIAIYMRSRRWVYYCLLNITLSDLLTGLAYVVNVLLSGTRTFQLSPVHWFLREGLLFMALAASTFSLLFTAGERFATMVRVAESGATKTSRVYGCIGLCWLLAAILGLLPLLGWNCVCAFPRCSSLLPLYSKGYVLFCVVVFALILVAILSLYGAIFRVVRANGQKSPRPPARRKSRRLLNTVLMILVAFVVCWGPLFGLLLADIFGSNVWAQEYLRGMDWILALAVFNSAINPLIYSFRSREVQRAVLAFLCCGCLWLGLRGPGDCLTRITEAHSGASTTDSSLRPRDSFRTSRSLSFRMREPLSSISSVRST
Source text: In order to determine whether or not SLB736, the compound of the present invention, acts as a functional antagonist of S1PR4, changes in S1PR4 protein expression were observed after administration of candidate substances to nonalcoholic steatohepatitis (NASH) model mice and macrophages thereof.
It is well known that the administration of a methionine choline-deficient diet (MCDD) to mice results in non-alcoholic steatohepatitis. The mice (C57BL/6N, Orient Bio, Inc., Korea) used in the experiments were divided into three groups, and MCDD alone, 1 mg/kg of MCDD and FTY720, and 1 mg/kg of MCDD and SLB736 were administered to each group for 6 weeks. Then, changes in the expression of S1PR4 protein in liver tissue of mice were measured through Western blotting.

[3] = test system: non-alcoholic steatohepatitis (NASH) caused by MCDD; assay: treatment of NASH in NASH-induced mice (MCDD for 4 weeks, then 4 weeks treatment); format: in vivo, mouse; conditions: 5 mg/kg/day for 4 weeks after 4 weeks MCDD, liver tissue
Experimental: A NASH-induced animal model obtained by administering MCDD to 8-week-old mice (C57BL6/N, Orient Bio Inc., Korea) for 4 weeks was used in order to identify the effect of the SLB736 compound on the treatment of non-alcoholic steatohepatitis (NASH). Specifically, the NASH-induced model mice were divided into two groups, the control group was further fed with MCDD for 4 weeks, the experimental group was fed with SLB736 at a dose of 5 mg/kg/day for 4 weeks in combination with MCDD, and liver tissue was collected from each mouse and observed with a microscope to determine the degree of steatosis, lobular inflammation and fibrosis.

NLRP3 inflammasome = assay: IL-1β production of LPS-treated macrophages (NLRP3 inflammasome activity); format: cell-based, mouse; conditions: Raw cells; for inhibitory effect of IL-1β production: then LPS
Source text: It is well known that the treatment of macrophages with lipopolysaccharide (LPS) results in activation of inflammation-regulating complex (inflammasome), thereby increasing IL-1β production (Mariathasan et al., Nat. Rev. Immunol. 2007; 17186029). In order to determine the inhibitory effect of the activity of inflammation-regulating complex (NLRP3 inflammasome), which is a representative inflammation-regulating protein, the IL-1(3 production of candidate substances upon the treatment of macrophages with LPS was measured and evaluated.
The macrophages were treated with myriocin in different concentrations as a control group and were then treated with the same concentration of LPS for 24 hours. […] Based on this, experiments were conducted to determine the effect of sphingolipid candidates on the inhibition of IL-1β.

S1PR4 [4] = target: T2, S1PR4 (Homo sapiens, UniProt O95977); assay: agonistic activity of S1P receptors, GPCR activity measurement method of DiscoveRX Corp.; format: cell-based
T2 construct: purchased DiscoveRX Corp
T2 sequence (O95977 1-384): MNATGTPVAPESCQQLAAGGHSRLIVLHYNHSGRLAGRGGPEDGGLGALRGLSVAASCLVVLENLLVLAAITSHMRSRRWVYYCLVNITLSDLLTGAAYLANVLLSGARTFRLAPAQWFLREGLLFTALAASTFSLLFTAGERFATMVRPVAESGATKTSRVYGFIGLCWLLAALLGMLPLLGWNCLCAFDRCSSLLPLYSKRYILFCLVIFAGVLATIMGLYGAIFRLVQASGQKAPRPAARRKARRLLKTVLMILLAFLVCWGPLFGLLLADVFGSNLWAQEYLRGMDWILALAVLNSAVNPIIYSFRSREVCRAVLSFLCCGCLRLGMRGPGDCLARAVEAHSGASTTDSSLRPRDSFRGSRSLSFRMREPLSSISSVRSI

[5] = test system: non-alcoholic steatohepatitis (NASH) caused by MCDD; assay: prevention of NASH onset in mice administered MCDD for 6 weeks; format: in vivo, mouse
Source text: In order to identify the effect of the SLB736 compound on the prevention of onset of non-alcoholic steatohepatitis (NASH), an animal model administered with MCDD for 6 weeks was used. Generally known characteristic microscopic findings of NASH include steatosis, ballooning degeneration of hepatocytes, lobular inflammation, perisinusoidal fibrosis and the like. In 2005, the NASH clinical research network (CRN) designed a detailed grading system for lesions corresponding to nonalcoholic steatohepatitis and thus proposed the nonalcoholic fatty liver disease activity score (NAS), which is widely used in various research due to the excellent reproducibility thereof. Accordingly, the present inventors have scored the grade of steatosis, location of steatosis, lobular inflammation and the extent of fibrosis, from the results of liver tissue observation of animal models, based on the CRN classification system. Based on this, the effect of SLB736, which is the target compound in the present invention, on the prevention or progression of non-alcoholic steatohepatitis caused by MCDD was evaluated. […] In order to determine this quantitatively, evaluation was conducted according to the NAS system of the CRN. […] In addition, the expression levels of TGF-β, TNF-α and MCP-1 were measured in order to identify the effects of the SLB736 compound on the expression of inflammatory markers and fibrosis markers in liver tissue. Specifically, RNA was extracted from liver tissue of the animal model and mRNA was measured using Q-PCR.

S1PR4 [6] = target: T1, S1PR4; assay: S1PR4 expression in LPS-treated Raw cells; format: cell-based; conditions: substance then LPS, vs LPS only
Experimental: In addition, Raw cells, which are mouse macrophage lines, were treated with a FTY720 or SLB736 substance, and were then treated with LPS, and S1PR4 expression was then measured.

[7] = leukocytes and lymphocytes in whole blood after administration (lymphopenia); format: in vivo, mouse; conditions: mice, automated analyzer
Experimental: Therefore, when the SLB736 of the present invention was administered, changes of leukocytes and lymphocytes in the blood were measured to determine the possibility of side effects. On the day of autopsy, blood was collected from the posterior vein using a syringe and whole blood was refrigerated in an EDTA-2K CBC bottle. The leukocytes and lymphocytes in the whole blood were measured using an automated analyzer.

[8] = 10 times a normal dose; cited from earlier work
[9] = 1 mg/kg/day for six weeks with MCDD, liver tissue
[10] = 1 mg/kg/day for six weeks with MCDD, vs control group
[11] = liver tissue, MCDD 6 weeks model

**Q.** For `CCCCCCCCc1ccc(CCC(N)(CO)CO)cc1` [FTY720, Fingolimod], which “side effect in the blood” value [1] is on record?
**A.** lymphopenia in the blood

**Q.** For `CCCCCCCCCCCCC/C=C/[C@@H](O)[C@@H](N)COP(=O)(O)O` [S1P, sphingosine 1-phosphate, reference compound], which S1PR4 internalization (S1PR4-EGFP) is on record?
**A.** internalized

**Q.** What about the “S1PR4 recycling to the cell membrane” value (S1PR4-EGFP) of the same compound?
**A.** recycled to the cell membrane

**Q.** What does the source list for `CCCCCCCCCCn1cc(CCC(N)(CO)CO)nn1` [SLB736, 2-amino-2-(2-(1-decyl-1H-1,2,3-triazol-4-yl)ethyl)propane-1,3-diol]?
**A.** amount of S1PR4 protein in liver tissue (S1PR4 [2]): decreased; degree of fibrosis (microscope) [3]: considerable reduction; degree of steatosis (microscope) [3]: considerable reduction; lobular inflammation (microscope) [3]: considerable reduction; inhibitory effect of IL-1β production (NLRP3 inflammasome; 0.1 μM): excellent; inhibitory effect of IL-1β production (NLRP3 inflammasome; 1.0 μM): excellent; agonistic activity of S1P receptors (S1PR4 [4]): agonistic effect specific for S1PR4; S1PR4 internalization (S1PR4-EGFP): internalized; S1PR4 recycling to the cell membrane (S1PR4-EGFP): not recycled; degree of fibrosis (microscope) [5, 9]: significantly reduced; degree of steatosis (microscope) [5, 9]: significantly reduced; lobular inflammation (microscope) [5, 9]: significantly reduced; degree of fibrosis, NAS system of the CRN [5, 10]: significantly alleviated; degree of steatosis, NAS system of the CRN [5, 10]: significantly alleviated; lobular inflammation, NAS system of the CRN [5, 10]: significantly alleviated; expression of MCP-1 (mRNA, Q-PCR) [5, 11]: reduced to a significant level; expression of TGF-β (mRNA, Q-PCR) [5, 11]: reduced to a significant level; expression of TNF-α (mRNA, Q-PCR) [5, 11]: reduced to a significant level; expression level of S1PR4 (S1PR4 [6]): significantly reduce; leukocytes in blood [7]: no reduction; lymphocytes in blood [7]: no reduction

**Q.** With `CCCCCCC(=O)CCCCCC/C=C/C[C@@H](O)[C@H](O)[C@@](N)(CO)C(=O)O` [myriocin, reference compound] as the compound, how does the IL-1β production (NLRP3 inflammasome; 10 μM, then LPS 100 ng/ml for 24 hours) read?
**A.** effectively reduced IL-1β production

**Q.** And the toxicity in animals [8]?
**A.** death from severe digestive disorders
